Patent US11739098B2 (BRISTOL-MYERS SQUIBB COMPANY, priority 2017, dated 2023)

Assays:
Type in all cases: cell-based
human TLR7 = molecular target: T1, human TLR7 (Homo sapiens, UniProt Q9NYK1); test: TLR7 inhibition reporter assay (HEK-Blue cells, SEAP reporter, gardiquimod stimulation); conditions: HEK-Blue cells overexpressing human TLR7, SEAP reporter, gardiquimod 7.5 μM
T1 construct: host or cells: HEK-Blue cells (HEK293-derived reporter line)
T1 sequence (Q9NYK1 27-1049): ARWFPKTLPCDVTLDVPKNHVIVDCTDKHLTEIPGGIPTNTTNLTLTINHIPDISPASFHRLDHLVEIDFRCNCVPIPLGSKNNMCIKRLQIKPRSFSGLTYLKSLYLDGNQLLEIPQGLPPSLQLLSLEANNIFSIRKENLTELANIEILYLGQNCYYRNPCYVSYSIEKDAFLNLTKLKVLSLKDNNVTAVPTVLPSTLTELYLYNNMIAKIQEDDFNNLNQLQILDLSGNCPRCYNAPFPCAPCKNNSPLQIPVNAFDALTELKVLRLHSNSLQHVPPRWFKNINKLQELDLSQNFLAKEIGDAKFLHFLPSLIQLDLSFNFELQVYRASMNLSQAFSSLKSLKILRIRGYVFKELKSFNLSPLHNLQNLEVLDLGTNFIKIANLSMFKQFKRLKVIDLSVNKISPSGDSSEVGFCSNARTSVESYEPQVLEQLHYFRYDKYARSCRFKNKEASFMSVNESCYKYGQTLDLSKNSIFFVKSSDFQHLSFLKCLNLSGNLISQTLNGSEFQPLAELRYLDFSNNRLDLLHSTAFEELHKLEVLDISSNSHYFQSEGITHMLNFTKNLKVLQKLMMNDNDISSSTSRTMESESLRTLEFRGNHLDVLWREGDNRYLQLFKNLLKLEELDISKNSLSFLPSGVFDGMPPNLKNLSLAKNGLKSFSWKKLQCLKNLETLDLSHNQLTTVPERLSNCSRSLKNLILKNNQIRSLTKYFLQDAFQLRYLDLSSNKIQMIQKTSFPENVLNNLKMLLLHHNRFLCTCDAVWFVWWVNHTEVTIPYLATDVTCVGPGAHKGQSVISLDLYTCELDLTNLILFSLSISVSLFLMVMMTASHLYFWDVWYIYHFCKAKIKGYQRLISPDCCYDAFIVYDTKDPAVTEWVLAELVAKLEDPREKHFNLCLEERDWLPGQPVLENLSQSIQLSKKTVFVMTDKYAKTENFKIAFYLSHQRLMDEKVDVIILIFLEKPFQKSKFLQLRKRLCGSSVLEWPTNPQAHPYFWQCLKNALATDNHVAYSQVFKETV
Procedure, shortened: (§1)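 HEK-Blue cells overexpressing the receptor, with NF-κB/AP-1-driven SEAP, were pre-treated 30 min at room temperature with compound (0.05 nM–50 μM), then stimulated with gardiquimod 7.5 μM (TLR7), R848 15.9 μM (TLR8) or ODN2006 5 nM (TLR9). SEAP was read after 22 h at 37 °C as percent inhibition.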

human TLR9 = molecular target: T2, human TLR9 (Homo sapiens, UniProt Q9NR96); test: TLR9 inhibition reporter assay (HEK-Blue cells, SEAP reporter, ODN2006 stimulation); conditions: HEK-Blue cells overexpressing human TLR9, SEAP reporter, ODN2006 5 nM
T2 construct: host or cells: HEK-Blue cells (HEK293-derived reporter line)
T2 sequence (Q9NR96 26-1032): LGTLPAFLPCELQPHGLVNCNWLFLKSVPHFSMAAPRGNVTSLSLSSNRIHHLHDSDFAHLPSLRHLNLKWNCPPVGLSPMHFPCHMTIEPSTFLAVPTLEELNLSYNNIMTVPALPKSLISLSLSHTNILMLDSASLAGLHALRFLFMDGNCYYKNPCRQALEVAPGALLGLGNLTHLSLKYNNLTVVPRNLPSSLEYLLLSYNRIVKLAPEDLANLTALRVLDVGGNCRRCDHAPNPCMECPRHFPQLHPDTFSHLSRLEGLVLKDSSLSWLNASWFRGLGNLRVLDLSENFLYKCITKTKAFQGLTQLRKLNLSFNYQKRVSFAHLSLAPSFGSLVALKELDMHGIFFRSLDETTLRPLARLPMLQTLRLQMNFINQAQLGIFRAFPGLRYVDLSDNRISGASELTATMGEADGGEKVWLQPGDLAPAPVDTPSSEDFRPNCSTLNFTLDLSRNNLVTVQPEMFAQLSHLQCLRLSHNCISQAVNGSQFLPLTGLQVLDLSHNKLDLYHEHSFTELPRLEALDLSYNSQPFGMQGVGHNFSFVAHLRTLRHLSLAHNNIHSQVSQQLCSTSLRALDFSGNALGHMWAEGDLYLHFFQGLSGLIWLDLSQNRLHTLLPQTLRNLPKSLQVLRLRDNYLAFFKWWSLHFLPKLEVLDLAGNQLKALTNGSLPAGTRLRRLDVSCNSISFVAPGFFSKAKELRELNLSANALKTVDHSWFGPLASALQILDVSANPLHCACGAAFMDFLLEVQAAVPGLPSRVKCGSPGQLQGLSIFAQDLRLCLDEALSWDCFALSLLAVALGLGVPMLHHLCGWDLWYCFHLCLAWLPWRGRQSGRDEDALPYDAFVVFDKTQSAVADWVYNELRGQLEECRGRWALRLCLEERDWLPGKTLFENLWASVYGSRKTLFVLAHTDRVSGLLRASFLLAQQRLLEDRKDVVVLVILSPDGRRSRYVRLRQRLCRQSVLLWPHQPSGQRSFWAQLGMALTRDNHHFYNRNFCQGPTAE
Procedure, shortened: as §1

human TLR8 = molecular target: T3, human TLR8 (Homo sapiens, UniProt Q9NR97); test: TLR8 inhibition reporter assay (HEK-Blue cells, SEAP reporter, R848 stimulation); conditions: HEK-Blue cells overexpressing human TLR8, SEAP reporter, R848 15.9 μM
T3 construct: host or cells: HEK-Blue cells (HEK293-derived reporter line)
T3 sequence (Q9NR97 27-1041): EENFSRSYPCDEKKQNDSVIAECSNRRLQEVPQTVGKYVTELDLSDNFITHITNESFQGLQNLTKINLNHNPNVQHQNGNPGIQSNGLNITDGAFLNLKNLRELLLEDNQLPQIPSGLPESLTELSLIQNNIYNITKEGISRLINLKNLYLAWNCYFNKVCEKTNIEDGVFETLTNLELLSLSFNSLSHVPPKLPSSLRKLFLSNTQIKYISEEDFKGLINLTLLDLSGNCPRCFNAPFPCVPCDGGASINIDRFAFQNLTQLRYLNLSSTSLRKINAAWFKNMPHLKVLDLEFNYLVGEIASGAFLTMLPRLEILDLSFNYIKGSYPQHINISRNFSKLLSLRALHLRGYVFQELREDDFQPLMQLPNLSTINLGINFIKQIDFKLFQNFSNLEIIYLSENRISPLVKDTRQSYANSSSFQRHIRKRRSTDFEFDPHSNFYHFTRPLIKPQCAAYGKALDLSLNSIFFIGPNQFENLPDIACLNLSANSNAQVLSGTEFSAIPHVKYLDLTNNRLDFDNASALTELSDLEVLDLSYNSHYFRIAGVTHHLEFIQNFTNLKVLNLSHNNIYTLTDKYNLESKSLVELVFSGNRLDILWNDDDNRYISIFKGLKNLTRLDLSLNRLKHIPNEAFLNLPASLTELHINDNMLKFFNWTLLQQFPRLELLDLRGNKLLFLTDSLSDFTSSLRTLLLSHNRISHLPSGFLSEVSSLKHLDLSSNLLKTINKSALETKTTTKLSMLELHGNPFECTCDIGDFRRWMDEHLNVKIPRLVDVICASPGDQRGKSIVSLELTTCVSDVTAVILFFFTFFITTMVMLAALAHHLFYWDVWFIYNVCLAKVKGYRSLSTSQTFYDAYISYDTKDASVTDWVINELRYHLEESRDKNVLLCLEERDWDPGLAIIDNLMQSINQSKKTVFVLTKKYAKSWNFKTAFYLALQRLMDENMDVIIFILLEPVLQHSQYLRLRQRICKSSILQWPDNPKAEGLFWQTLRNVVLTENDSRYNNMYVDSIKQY
Procedure, shortened: as §1

Row | IC50 (human TLR7) [nM] | IC50 (human TLR9) [nM] | IC50 (human TLR8) [nM] | Compound
1 | 1000 to 50000 | 1000 to 50000 | 100 to 1000 | CNC(=O)CN1CCC(c2ccc3[nH]c(-c4ccc(C)n5nc(C)nc45)c(C(C)C)c3c2)CC1 [Example 383, 2-(4-(2-(2,5-dimethyl-[1,2,4]triazolo[1,5-a]pyridin-8-yl)-3-isopropyl-1H-indol-5-yl)piperidin-1-yl)-N-methylacetamide]
2 | < 100 | 100 to 1000 | 100 to 1000 | Cc1cn2c(C)c(-c3[nH]c4ccc(C5CCNCC5)cc4c3C(C)C)ccc2n1 [Example 123, 6-(3-isopropyl-5-(piperidin-4-yl)-1H-indol-2-yl)-2,5-dimethylimidazo[1,2-a]pyridine]
3 | < 100 | 1000 to 50000 | < 100 | CC(C)c1c(-c2cc(Cl)c3ncccc3c2)[nH]c2ccc(C3CCN(CC(=O)N(C)C)CC3)cc12 [Example 380, 2-(4-(2-(8-chloroquinolin-6-yl)-3-isopropyl-1H-indol-5-yl)piperidin-1-yl)-N,N-dimethylacetamide]
4 | 100 to 1000 | 1000 to 50000 | 100 to 1000 | Cc1cc2nc(-c3[nH]c4ccc(C5CCN(CC(=O)N(C)C)CC5)cc4c3C(C)C)c(F)cn2n1 [Example 438, 2-(4-(2-(6-fluoro-2-methylpyrazolo[1,5-a]pyrimidin-5-yl)-3-isopropyl-1H-indol-5-yl)piperidin-1-yl)-N,N-dimethylacetamide]
5 | 100 to 1000 | 1000 to 50000 | 100 to 1000 | CNC(=O)CN1CCC(c2ccc3[nH]c(-c4cccn5ncnc45)c(C(C)C)c3c2)CC1 [Example 361, 2-(4-(2-([1,2,4]triazolo[1,5-a]pyridin-8-yl)-3-isopropyl-1H-indol-5-yl)piperidin-1-yl)-N-methylacetamide]
6 | < 100 | 1000 to 50000 | 100 to 1000 | COc1cc(-c2[nH]c3ccc(C4CCNCC4)cc3c2C(C)C)c2ccccc2n1 [Example 105, 4-(3-isopropyl-5-(piperidin-4-yl)-1H-indol-2-yl)-2-methoxyquinoline]
7 | < 100 | 100 to 1000 | < 100 | CC(C)c1c(-c2cc(N)nc3[nH]cnc23)[nH]c2ccc(C3CCNCC3)cc12 [Example 228, 7-(3-isopropyl-5-(piperidin-4-yl)-1H-indol-2-yl)-3H-imidazo[4,5-b]pyridin-5-amine]
8 | 100 to 1000 | 100 to 1000 | 100 to 1000 | CC(C)c1c(-c2ccnc3[nH]ncc23)[nH]c2ccc(C3CCN(CCCN(C)C)CC3)cc12 [Example 845, 3-(4-(3-isopropyl-2-(1H-pyrazolo[3,4-b]pyridin-4-yl)-1H-indol-5-yl)piperidin-1-yl)-N,N-dimethylpropan-1-amine]
9 | < 100 | 100 to 1000 | < 100 | CC(C)c1c(-c2cc(CO)c3nccn3c2)[nH]c2ccc(C3CCN(CC(=O)N(C)C)CC3)cc12 [Example 329, 2-(4-(2-(8-(hydroxymethyl)imidazo [1,2-a]pyridin-6-yl)-3-isopropyl-1H-indol-5-yl)piperidin-1-yl)-N,N-dimethylacetamide]
10 | < 100 | 100 to 1000 | < 100 | CC(C)c1c(-c2ccnc3[nH]ncc23)[nH]c2ccc(C3CCN(Cc4ccc(N5CCN(C)CC5)cc4)CC3)cc12 [Example 919, 4-(3-isopropyl-5-(1-(4-(4-methylpiperazin-1-yl)benzyl)piperidin-4-yl)-1H-indol-2-yl)-1H-pyrazolo[3,4-b]pyridine]
11 | 100 to 1000 | 1000 to 50000 | 1000 to 50000 | CNC(=O)CN1CCC(c2ccc3[nH]c(-c4cc(OC)n5cc(C)nc5c4)c(C(C)C)c3c2)CC1 [Example 335, 2-(4-(3-isopropyl-2-(5-methoxy-2-methylimidazo[1,2-a]pyridin-7-yl)-1H-indol-5-yl)piperidin-1-yl)-N-methylacetamide]
12 | < 100 | 1000 to 50000 | 100 to 1000 | CNC(=O)CN1CCC(c2ccc3[nH]c(-c4cc(C)c5nn(C)cc5c4)c(C(C)C)c3c2)CC1 [Example 378, 2-(4-(2-(2,7-dimethyl-2H-indazol-5-yl)-3-isopropyl-1H-indol-5-yl)piperidin-1-yl)-N-methylacetamide]
13 | < 100 | 100 to 1000 | < 100 | CC(C)c1c(-c2ccnc3[nH]ncc23)[nH]c2cc(F)c(C3CCNCC3)cc12 [Example 253, 4-(6-fluoro-3-isopropyl-5-(piperidin-4-yl)-1H-indol-2-yl)-1H-pyrazolo[3,4-b]pyridine]
14 | 100 to 1000 | 1000 to 50000 | 100 to 1000 | FC(F)Cc1c(-c2ccnc3[nH]ncc23)[nH]c2ccc(C3CCNCC3)cc12 [Example 178, 4-(3-(2,2-difluoroethyl)-5-(piperidin-4-yl)-1H-indol-2-yl)-1H-pyrazolo[3,4-b]pyridine]
